# HELM strings list units from the 5' end as sugar, base in round brackets, then linkage (d deoxyribose, r ribose, m 2'-O-methyl, p phosphodiester). Strings are as the collection lists them; they lack the last nucleoside at the 3' end of the tested compound. [moe] = 2'-O-(2-methoxyethyl) (MOE); [sp] = phosphorothioate linkage; [m5C] = 5-methylcytosine
# Biological target: APP
# Test: mouse, dose not given
# Settings: ASO
row,Substance,3 h FOB score [score 0-7]
1,RNA1{[moe](A)[sp].[moe]([m5C])p.[moe](T)p.[moe](T)p.[moe](A)[sp].d([m5C])[sp].d(A)[sp].d(A)[sp].d(A)[sp].d([m5C])[sp].d(T)[sp].d([m5C])[sp].d(A)[sp].d([m5C])[sp].d([m5C])[sp].[moe](A)p.[moe](A)p.[moe]([m5C])[sp].[moe](T)}$$$$ (last 3' nucleoside missing),1
2,RNA1{[moe](G)[sp].[moe](T)p.[moe](T)p.[moe](T)p.[moe](A)p.[moe]([m5C])[sp].d([m5C])[sp].d(T)[sp].d(T)[sp].d(T)[sp].d(A)[sp].d(A)[sp].d([m5C])[sp].d(A)[sp].d(T)[sp].d(T)[sp].[moe]([m5C])p.[moe]([m5C])[sp].[moe](T)}$$$$ (last 3' nucleoside missing),2.75
3,RNA1{[moe](G)[sp].[moe](A)p.[moe](G)p.[moe](T)p.[moe](A)[sp].d(A)[sp].d(A)[sp].d(T)[sp].d([m5C])[sp].d(A)[sp].d(T)[sp].d(A)[sp].d(A)[sp].d(A)[sp].d(A)[sp].[moe]([m5C])p.[moe](G)p.[moe](G)[sp].[moe](G)}$$$$ (last 3' nucleoside missing),2
4,RNA1{[moe](G)[sp].[moe]([m5C])p.[moe](A)p.[moe](A)p.[moe](G)[sp].d(A)[sp].d([m5C])[sp].d(T)[sp].d(T)[sp].d(T)[sp].d(T)[sp].d([m5C])[sp].d(T)[sp].d(T)[sp].d(T)[sp].[moe](G)p.[moe]([m5C])p.[moe](T)[sp].[moe]([m5C])}$$$$ (last 3' nucleoside missing),0
5,RNA1{[moe](T)[sp].[moe]([m5C])p.[moe](A)p.[moe](T)p.[moe]([m5C])[sp].d(A)[sp].d(A)[sp].d([m5C])[sp].d(T)[sp].d(T)[sp].d(T)[sp].d(T)[sp].d(T)[sp].d(A)[sp].d(G)[sp].[moe](T)p.[moe]([m5C])p.[moe]([m5C])[sp].[moe](T)}$$$$ (last 3' nucleoside missing),0.67
6,RNA1{[moe]([m5C])[sp].[moe](G)p.[moe](T)p.[moe](G)p.[moe](T)[sp].d(G)[sp].d(T)[sp].d(A)[sp].d(T)[sp].d([m5C])[sp].d([m5C])[sp].d(T)[sp].d([m5C])[sp].d(T)[sp].d(T)[sp].[moe](A)p.[moe](A)p.[moe](T)[sp].[moe](T)}$$$$ (last 3' nucleoside missing),1
7,RNA1{[moe](G)[sp].[moe]([m5C])p.[moe](A)p.[moe](G)p.[moe](A)[sp].d(A)[sp].d(T)[sp].d(A)[sp].d([m5C])[sp].d([m5C])[sp].d(A)[sp].d(A)[sp].d(G)[sp].d(T)[sp].d(T)[sp].[moe](A)p.[moe](G)p.[moe](T)[sp].[moe](A)}$$$$ (last 3' nucleoside missing),0.25
8,RNA1{[moe](G)[sp].[moe]([m5C])p.[moe](A)p.[moe](A)p.[moe](A)[sp].d([m5C])[sp].d([m5C])[sp].d(A)[sp].d([m5C])[sp].d(T)[sp].d(T)[sp].d([m5C])[sp].d(T)[sp].d(G)[sp].d(T)[sp].[moe](A)p.[moe](G)p.[moe]([m5C])[sp].[moe](T)}$$$$ (last 3' nucleoside missing),0
9,RNA1{[moe](T)[sp].[moe]([m5C])p.[moe](T)p.[moe](T)p.[moe]([m5C])[sp].d(A)[sp].d(A)[sp].d([m5C])[sp].d(T)[sp].d(T)[sp].d(A)[sp].d(G)[sp].d(T)[sp].d([m5C])[sp].d(A)[sp].[moe](T)p.[moe]([m5C])p.[moe]([m5C])[sp].[moe](T)}$$$$ (last 3' nucleoside missing),0
10,RNA1{[moe](G)[sp].[moe](T)p.[moe](T)p.[moe](G)p.[moe](A)[sp].d(A)[sp].d(T)[sp].d(T)[sp].d(T)[sp].d([m5C])[sp].d(T)[sp].d(T)[sp].d(A)[sp].d([m5C])[sp].d(A)[sp].[moe]([m5C])p.[moe](T)p.[moe](T)[sp].[moe](T)}$$$$ (last 3' nucleoside missing),0
11,RNA1{[moe](T)[sp].[moe](T)p.[moe](G)p.[moe](A)p.[moe](T)[sp].d(G)[sp].d([m5C])[sp].d(A)[sp].d([m5C])[sp].d(A)[sp].d(T)[sp].d(A)[sp].d(T)[sp].d([m5C])[sp].d([m5C])[sp].[moe](A)p.[moe](G)p.[moe](G)[sp].[moe]([m5C])}$$$$ (last 3' nucleoside missing),2
12,RNA1{[moe](A)[sp].[moe](G)p.[moe](G)p.[moe](A)p.[moe](A)[sp].d([m5C])[sp].d(T)[sp].d([m5C])[sp].d(G)[sp].d(A)[sp].d(A)[sp].d([m5C])[sp].d([m5C])[sp].d(A)[sp].d([m5C])[sp].[moe]([m5C])p.[moe](T)p.[moe]([m5C])[sp].[moe](T)}$$$$ (last 3' nucleoside missing),1
13,RNA1{[moe](G)[sp].[moe](T)p.[moe]([m5C])p.[moe](A)p.[moe]([m5C])[sp].d(A)[sp].d(T)[sp].d(G)[sp].d(A)[sp].d(T)[sp].d(A)[sp].d(T)[sp].d(T)[sp].d(T)[sp].d([m5C])[sp].[moe](A)p.[moe](G)p.[moe](A)[sp].[moe](T)}$$$$ (last 3' nucleoside missing),1
14,RNA1{[moe](G)[sp].[moe]([m5C])p.[moe]([m5C])p.[moe](A)p.[moe](T)[sp].d(A)[sp].d(T)[sp].d(T)[sp].d(G)[sp].d(T)[sp].d([m5C])[sp].d(A)[sp].d(T)[sp].d(T)[sp].d(T)[sp].[moe](T)p.[moe](A)p.[moe]([m5C])[sp].[moe](A)}$$$$ (last 3' nucleoside missing),1.33
15,RNA1{[moe](G)[sp].[moe]([m5C])p.[moe](A)p.[moe](T)p.[moe]([m5C])[sp].d(T)[sp].d(T)[sp].d(T)[sp].d(T)[sp].d(A)[sp].d([m5C])[sp].d(T)[sp].d(A)[sp].d(T)[sp].d([m5C])[sp].[moe](T)p.[moe](G)p.[moe]([m5C])[sp].[moe]([m5C])}$$$$ (last 3' nucleoside missing),0
16,RNA1{[moe](A)[sp].[moe]([m5C])p.[moe](A)p.[moe]([m5C])p.[moe]([m5C])[sp].d(G)[sp].d([m5C])[sp].d([m5C])[sp].d([m5C])[sp].d(A)[sp].d([m5C])[sp].d([m5C])[sp].d(A)[sp].d(T)[sp].d(G)[sp].[moe](A)p.[moe](G)p.[moe](T)[sp].[moe]([m5C])}$$$$ (last 3' nucleoside missing),1
17,RNA1{[moe]([m5C])[sp].[moe](A)p.[moe](A)p.[moe](A)p.[moe](G)[sp].d(A)[sp].d(T)[sp].d(T)[sp].d([m5C])[sp].d([m5C])[sp].d(A)[sp].d([m5C])[sp].d(T)[sp].d(T)[sp].d(T)[sp].[moe]([m5C])p.[moe](T)p.[moe]([m5C])[sp].[moe]([m5C])}$$$$ (last 3' nucleoside missing),7
18,RNA1{[moe](A)[sp].[moe](A)p.[moe]([m5C])p.[moe](T)p.[moe]([m5C])[sp].d(G)[sp].d(A)[sp].d(A)[sp].d([m5C])[sp].d([m5C])[sp].d(A)[sp].d([m5C])[sp].d([m5C])[sp].d(T)[sp].d([m5C])[sp].[moe](T)p.[moe](T)p.[moe]([m5C])[sp].[moe]([m5C])}$$$$ (last 3' nucleoside missing),0
19,RNA1{[moe](T)[sp].[moe]([m5C])p.[moe]([m5C])p.[moe](G)p.[moe](A)[sp].d(G)[sp].d(T)[sp].d([m5C])[sp].d(A)[sp].d(T)[sp].d([m5C])[sp].d([m5C])[sp].d(T)[sp].d([m5C])[sp].d([m5C])[sp].[moe](T)p.[moe]([m5C])p.[moe]([m5C])[sp].[moe](G)}$$$$ (last 3' nucleoside missing),1
20,RNA1{[moe](T)[sp].[moe]([m5C])p.[moe](T)p.[moe]([m5C])p.[moe]([m5C])[sp].d(A)[sp].d(A)[sp].d(T)[sp].d(T)[sp].d(T)[sp].d(T)[sp].d(A)[sp].d(A)[sp].d([m5C])[sp].d(T)[sp].[moe](T)p.[moe](G)p.[moe]([m5C])[sp].[moe](A)}$$$$ (last 3' nucleoside missing),0
21,RNA1{[moe]([m5C])[sp].[moe](T)[sp].[moe](T)p.[moe]([m5C])p.[moe]([m5C])[sp].d([m5C])[sp].d(A)[sp].d(T)[sp].d(T)[sp].d([m5C])[sp].d(T)[sp].d([m5C])[sp].d(T)[sp].d([m5C])[sp].d(A)[sp].[moe](T)p.[moe](G)p.[moe](A)[sp].[moe]([m5C])}$$$$ (last 3' nucleoside missing),1
22,RNA1{[moe](T)[sp].[moe]([m5C])p.[moe](T)p.[moe](T)p.[moe]([m5C])[sp].d(T)[sp].d(T)[sp].d([m5C])[sp].d([m5C])[sp].d(A)[sp].d([m5C])[sp].d([m5C])[sp].d(T)[sp].d([m5C])[sp].d(A)[sp].[moe](G)p.[moe]([m5C])p.[moe]([m5C])[sp].[moe](A)}$$$$ (last 3' nucleoside missing),0.5
23,RNA1{[moe](G)[sp].[moe](A)p.[moe](G)p.[moe](A)p.[moe](T)[sp].d(A)[sp].d([m5C])[sp].d(T)[sp].d(T)[sp].d(G)[sp].d(T)[sp].d([m5C])[sp].d(A)[sp].d(A)[sp].d([m5C])[sp].[moe](G)p.[moe](G)p.[moe]([m5C])[sp].[moe](A)}$$$$ (last 3' nucleoside missing),1.67
24,RNA1{[moe](G)[sp].[moe]([m5C])p.[moe](T)p.[moe]([m5C])p.[moe](A)[sp].d(T)[sp].d(T)[sp].d(T)[sp].d(T)[sp].d(T)[sp].d(T)[sp].d(T)[sp].d(T)[sp].d(A)[sp].d([m5C])[sp].[moe](A)p.[moe](T)p.[moe](G)[sp].[moe](A)}$$$$ (last 3' nucleoside missing),0
25,RNA1{[moe](T)[sp].[moe]([m5C])p.[moe](T)p.[moe](T)p.[moe]([m5C])[sp].d([m5C])[sp].d([m5C])[sp].d(A)[sp].d([m5C])[sp].d(A)[sp].d(T)[sp].d(T)[sp].d(A)[sp].d(T)[sp].d(T)[sp].[moe]([m5C])p.[moe](T)p.[moe](A)[sp].[moe](T)}$$$$ (last 3' nucleoside missing),0

# From the OligoGym collection
